Data from US20240400584A1, “COMPOUNDS AND METHODS FOR MODULATING SPLICING” (REMIX THERAPEUTICS INC., priority 2021, published 2024).

Key:
MYB [1] = test: RT-qPCR splicing assay, MYB AJ/CJ mRNA; assay type: cell-based; settings: Homo sapiens, A673 or K562 cells, 24 hours; for IC50: decrease in canonical junction mRNA; for AC50: increase in alternative junction mRNA
How it was run: (§1)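 Splicing switch scored as change in CJ and AJ isoform levels, by RT-qPCR on lysates of A673 or K562 cells dosed 24 h (top concentration 10 uM, DMSO at most 0.25%). ΔΔCt relative to DMSO wells was converted to RQ and then to percentage response.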

MYB [2] = test: Gene panel canonical junction qPCR assay, MYB CJ mRNA (Table 7); assay type: cell-based; settings: Homo sapiens, read-out: MYB CJ mRNA decrease IC50
How it was run: (§2)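 A673 or K562 cells treated with compound; canonical exon-junction mRNA measured by RT-qPCR with junction-spanning primers/probe, normalised to GAPDH, GUSB or PPIA and DMSO (ΔΔCt, RQ). Percentage response set from fixed ΔCt assay windows, fitted to a 4-parameter logistic; IC50 is concentration giving 50% CJ decrease.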

Target C = test: Gene panel canonical junction qPCR assay, Target C CJ mRNA (Table 7); assay type: cell-based, human; settings: Homo sapiens, read-out: Target C CJ mRNA decrease IC50
How it was run: as §2

HTT [3] = test: RT-qPCR splicing assay, HTT AJ/CJ mRNA; assay type: cell-based, human; settings: Homo sapiens, 24 h, A673 or K562 cells; for IC50: decrease in canonical junction mRNA; for AC50: increase in alternative junction mRNA
How it was run: as §1

SMN2 = test: Gene panel canonical junction qPCR assay, SMN2 CJ mRNA (Table 7); assay type: cell-based; settings: Homo sapiens, read-out: SMN2 CJ mRNA decrease IC50
How it was run: as §2

HTT [4] = test: Gene panel canonical junction qPCR assay, HTT CJ mRNA (Table 7); assay type: cell-based, human; settings: Homo sapiens, read-out: HTT CJ mRNA decrease IC50
How it was run: as §2

SMILES	IC50 (MYB [1]) [nM]	AC50 (MYB [1]) [nM]	IC50 (MYB [2]) [nM]	IC50 (Target C) [nM]	IC50 (HTT [3]) [nM]	AC50 (HTT [3]) [nM]	IC50 (SMN2) [nM]	IC50 (HTT [4]) [nM]
CC1(NC2CCN(c3ccc4c(n3)OCc3cc(-n5nccn5)ccc3-4)C2)CC1 (centres unmarked) [Compound 252, N-(1-methylcyclopropyl)-1-[8-(1,2,3-triazol-2-yl)-6H-isochromeno[3,4-b]pyridin-3-yl]pyrrolidin-3-amine]	1000 to 10000	1000 to 10000	1000 to 10000	1000 to 10000	100 to 1000	1000 to 10000	100 to 1000	100 to 1000
CC1(NC2CCN(c3ccc4c(n3)OCc3cc(-c5cn[nH]c5)ccc3-4)C2)CC1 (centres unmarked) [Compound 253, N-(1-methylcyclopropyl)-1-[8-(1H-pyrazol-4-yl)-6H-isochromeno[3,4-b]pyridin-3-yl]pyrrolidin-3-amine]	100 to 1000	100 to 1000	100 to 1000	100 to 1000	100 to 1000	< 100	< 100	100 to 1000
COc1cc(-c2cc(F)c3c(c2)COc2nc(N(C)[C@@H]4C[C@H]5CC[C@@H](C4)N5)ccc2-3)cnn1 [Compound 254, (1R,3S,5S)—N-[10-fluoro-8-(6-methoxypyridazin-4-yl)-6H-isochromeno[3,4-b]pyridin-3-yl]-N-methyl-8-azabicyclo[3.2.1]octan-3-amine; bis(trifluoroacetaldehyde)]	100 to 1000	100 to 1000	100 to 1000	100 to 1000	< 100	< 100	< 100	< 100
COc1cc(-c2ccc3c(c2)COc2nc(N4CCC(NC5CC5)C4)ccc2-3)cnn1 (centres unmarked) [Compound 255, N-cyclopropyl-1-[8-(6-methoxypyridazin-4-yl)-6H-isochromeno[3,4-b]pyridin-3-yl]pyrrolidin-3-amine]	1000 to 10000	1000 to 10000	1000 to 10000	1000 to 10000	100 to 1000	1000 to 10000	100 to 1000	100 to 1000
COc1cc(-c2ccc3c(c2)COc2nc(N4CCC(NC5(C)CC5)C4)ccc2-3)cnn1 (centres unmarked) [Compound 256, 1-[8-(6-methoxypyridazin-4-yl)-6H-isochromeno[3,4-b]pyridin-3-yl]-N-(1-methylcyclopropyl)pyrrolidin-3-amine]	1000 to 10000	1000 to 10000	1000 to 10000	100 to 1000	100 to 1000	100 to 1000	100 to 1000	100 to 1000
CC(C)(C)N[C@@H]1CCN(c2ccc3c(n2)OCc2cc(-c4cn[nH]c4)ccc2-3)C1 [Compound 257, (3R)—N-tert-butyl-1-[8-(1H-pyrazol-4-yl)-6H-isochromeno[3,4-b]pyridin-3-yl]pyrrolidin-3-amine]	100 to 1000	100 to 1000	100 to 1000	< 100	< 100	< 100	< 100	< 100
CC(C)(C)N[C@H]1CCN(c2ccc3c(n2)OCc2cc(-c4cn[nH]c4)ccc2-3)C1 [Compound 258, (3S)—N-tert-butyl-1-[8-(1H-pyrazol-4-yl)-6H-isochromeno[3,4-b]pyridin-3-yl]pyrrolidin-3-amine]	1000 to 10000	100 to 1000	1000 to 10000	100 to 1000	100 to 1000	100 to 1000	100 to 1000	100 to 1000
Fc1cc2c(cc1-c1cn[nH]c1)COc1nc(O[C@@H]3C[C@H]4CC[C@@H](C3)N4)ccc1-2 [Compound 260]	100 to 1000	< 100	100 to 1000	100 to 1000	< 100	< 100	< 100	< 100
Cn1ncc(-c2ccc3c(c2)COc2nc(OC4CC5CC(F)(F)C(C4)N5)ccc2-3)cc1=O (centres unmarked) [Compound 261, 5-[3-({6,6-difluoro-8-azabicyclo[3.2.1]octan-3-yl}oxy)-6H-isochromeno[3,4-b]pyridin-8-yl]-2-methylpyridazin-3-one]	> 10000	> 10000	> 10000	> 10000	> 10000	> 10000	> 10000	> 10000
CC(C)Oc1cc(-c2ccc3c(c2)COc2nc(N4CCC(NC(C)(C)C)C4)ccc2-3)cnn1 (centres unmarked) [Compound 263, N-tert-butyl-1-[8-(6-isopropoxypyridazin-4-yl)-6H-isochromeno[3,4-b]pyridin-3-yl]pyrrolidin-3-amine]	> 10000	> 10000	> 10000	> 10000	> 10000	> 10000	> 10000	> 10000
COc1cc(-c2ccc3c(c2)COc2nc(N4CCC(NCC5CC5)C4)ccc2-3)cnn1 (centres unmarked) [Compound 264, N-(cyclopropylmethyl)-1-[8-(6-methoxypyridazin-4-yl)-6H-isochromeno [3,4-b]378yrrolid-3-yl]378yrrolidine-3-amine]	1000 to 10000	1000 to 10000	1000 to 10000	100 to 1000	100 to 1000	100 to 1000	100 to 1000	100 to 1000
COc1cc(-c2ccc3c(c2)COc2nc(N4CC[C@@H](NC(C)(C)C)C4)ccc2-3)cnn1 [Compound 265, (3R)—N-tert-butyl-1-[8-(6-methoxypyridazin-4-yl)-6H-isochromeno[3,4-b]376yrrolid-3-yl]376yrrolidine-3-amine]	100 to 1000	< 100	100 to 1000	< 100	< 100	< 100	< 100	< 100
CC(C)(C)NC1CCN(c2ccc3c(n2)OCc2cc(-c4cnnc(C5CC5)c4)ccc2-3)C1 (centres unmarked) [Compound 266, N-tert-butyl-1-[8-(6-cyclopropylpyridazin-4-yl)-6H-isochromeno[3,4-b]pyridin-3-yl]pyrrolidin-3-amine]	> 10000	> 10000	> 10000	> 10000	> 10000	> 10000	1000 to 10000	> 10000
CCOc1cc(-c2ccc3c(c2)COc2nc(N4CCC(NC(C)(C)C)C4)ccc2-3)cnn1 (centres unmarked) [Compound 267, N-tert-butyl-1-[8-(6-ethoxypyridazin-4-yl)-6H-isochromeno [3,4-b]pyridin-3-yl]pyrrolidin-3-amine]	> 10000	> 10000	> 10000	1000 to 10000	100 to 1000	1000 to 10000	100 to 1000	100 to 1000
CC(C)(C)NC1CCN(c2ccc3c(n2)OCc2cc(-c4cnnc(OC5CC5)c4)ccc2-3)C1 (centres unmarked) [Compound 268, N-tert-butyl-1-[8-(6-cyclopropoxypyridazin-4-yl)-6H-isochromeno[3,4-b]pyridin-3-yl]pyrrolidin-3-amine]	> 10000	> 10000	> 10000	> 10000	1000 to 10000	1000 to 10000	1000 to 10000	1000 to 10000
COc1cc(-c2ccc3c(c2)COc2nc(N4CC[C@H](NC(C)(C)C)C4)ccc2-3)cnn1 [Compound 269, (3S)—N-tert-butyl-1-[8-(6-methoxypyridazin-4-yl)-6H-isochromeno[3,4-b]pyridin-3-yl]pyrrolidin-3-amine]	100 to 1000	1000 to 10000	100 to 1000	100 to 1000	< 100	100 to 1000	< 100	< 100
